Reference: patent publication US8410161B2, “Thioxanthone ring system derivatives” (National Defense Medical Center, priority 2010, dated 2013)

Assays:
Type in all cases: cell-based
[1] = tested on: A3 cell lines; test: MTT assay, A3 cell lines (lung cancer stem cell)
Description: Please to FIG. 4B, various cell viabilities of the A3 cell lines can be obtained through the MTT assay and illustrated in FIG. 4B while the compounds No. 1˜30 are used to treat A3 cell lines, wherein A3 cell lines are lung cancer stem cell.

[2] = tested on: HEL299 fibroblast; test: MTT assay, HEL299 fibroblast
Description: (§1) Please refer to FIG. 4C, various cell viabilities of the HEL299 cell lines can be obtained through the MTT assay while the compounds No. 1˜30 are used to treat HEL299 cell lines, wherein HEL299 cell lines are fibroblast.

[3] = MTT assay, HEL299 fibroblast; conditions: human
Description: as §1

[4] = tested on: A control cell lines; test: MTT assay, A control cell lines (lung cancer cell); conditions: for inhibition effect on A control cell line (in words): summary of MTT cell viabilities
Description: Please refer to Table 1 and FIGS. 4A-4C. According to a MTT assay (Table 1), various cell viabilities of the A control cell lines can be obtained and illustrated in FIG. 4A while the compounds No. 2˜30 are used to treat A control cell lines, wherein A control cell lines are lung cancer cell.

Compound | cell viabilities of A3 cell lines (MTT assay) [1] | inhibition effect on A3 cell line (in words) ([1]; summary of MTT cell viabilities) | cytotoxicity effect on the normal fibroblast (in words) [2] | viability [3] | cell viabilities of A control cell lines (MTT assay) [4] | inhibition effect on A control cell line (in words) [4]
O=c1c2ccccc2sc2c(Cl)c(SCc3ccc(Br)cc3)ccc12 [No. 25, 3-(4-Bromobenzylthio)-4-chloro-9H-thioxanthen-9-one] | 61.5% | inhibition effect | without the cytotoxicity effect | 79.3% | 40.8% | inhibition effect
Cc1cc(C)c(CSc2ccc3c(=O)c4ccccc4sc3c2Cl)c(C)c1 [No. 28, 4-Chloro-3-(2,4,6-trimethylbenzylthio)-9H-thioxanthen-9-one] | 98.3 ± 2.25% | – | without the cytotoxicity effect | 91.2% | 52.9% | inhibition effect
